From US20090312423A1, “THERAPEUTIC TREATMENT FOR LUNG CONDITIONS” (Vanderbilt University, priority 2008, published 2009)

Experiments:
[1] = Plasma amino acid measurements; format: in vivo, piglets; conditions: for Plasma Citrulline: mean ± SEM
Experimental: On the day of hemodynamic measurements and/or lung perfusion study, for control and both L-citrulline treated and untreated chronic hypoxic animals, blood was drawn prior to starting the study and the plasma frozen at -80 degrees for later determination of amino acid levels. For the L-citrulline treated hypoxic animals, the time of obtaining the blood sample was approximately 12 hours after the last dose of L-citrulline so was a trough level. In some of the L-citrulline treated animals (n=3), after blood sampling for a trough level, a dose of L-citrulline was given via nasogastric tube. Following this dose, blood samples were drawn every 30 minutes for 90 minutes (the length of the in vivo studies). All samples were spun, the plasma collected and frozen at -80 degrees for amino acid analysis. Concentrations of plasma citrulline and arginine were determined by amino-acid analysis on protein-free extracts. Amino acids were separated by cation-exchange chromatography using a Hitachi […] amino acid analyzer (Hitachi USA, San Jose, Calif., United States of America). Calibration of the analyzer was performed before testing of piglet samples.

[2] = tested on: chronically hypoxic piglets; assay: In vivo hemodynamics in newborn piglets exposed to 10 days of chronic hypoxia
From the text: A total of 17 hypoxic and 17 control piglets were studied. Control animals were studied on the day of arrival from the farm at 12 days of age. The hypoxic pigs (2 days old) were placed in a normobaric hypoxic chamber for 10 to 11 days. Normobaric hypoxia was provided using compressed air and nitrogen to create inspired oxygen of 8-11% (PO2 60-72 Torr) and CO2 was maintained at 3-6 Torr by absorption with soda lime. The animals were monitored with daily weights and physical exam twice daily. They were fed ad lib with sow milk replacer from a feeding device in the cage.
Six of the seventeen hypoxic piglets were supplemented with oral L-citrulline starting on the first day of the hypoxic exposure. L-citrulline supplementation was provided at a dose of 0.13-gm/kilogram body weight twice a day using a syringe to deliver the dose orally. If it appeared to study personnel that the piglet had not ingested the majority of a dose, it was repeated. L-citrulline was mixed using a preparation (Sigma Pharmaceuticals, St. Louis, Mo., United States of America, 98% purity) at a concentration of 0.13 grams per milliliter of distilled water and when completely dissolved passing this solution through a 0.20 Micron filter.
In vivo hemodynamics were measured in 6 of the control piglets and all of the hypoxic piglets. […] Pulmonary artery pressure, left ventricular end diastolic pressure, and cardiac output were measured. Cardiac output was measured by a thermodilution technique (model 9520 thermodilution cardiac output computer, Edwards Laboratory, Irvine, Calif., United States of America) using a thermistor in the aortic arch and the left ventricle catheter as an injection port. Cardiac output was measured at end expiration as the mean of three injections of 3 ml of normal saline (0° C.). Exhaled NO was measured as described below. […]
Pulmonary vascular resistance was calculated from the in vivo hemodynamic measurements: (Pulmonary arterial pressure−left ventricular end diastolic pressure)÷(Cardiac output/body weight). […]

exhaled NO = assay: Exhaled nitric oxide measurement in anesthetized piglets; format: in vivo; conditions: FIG. 5; p-value 0.032; not different from control (p=0.124)
Experimental: In vivo hemodynamics were measured in 6 of the control piglets and all of the hypoxic piglets. For these measurements, the animals were weighed and then preanesthetized with Ketamine (15 mg/kg) and Acepromazine (2 mg/kg) intramuscularly. A tracheostomy, venous and arterial catheters, and thermistor were then placed as previously described using intravenous pentobarbital for sedation. Fike, C. D. et al., J Appl Physiol (2000) 88:1797-1803. Pulmonary artery pressure, left ventricular end diastolic pressure, and cardiac output were measured. Cardiac output was measured by a thermodilution technique (model 9520 thermodilution cardiac output computer, Edwards Laboratory, Irvine, Calif., United States of America) using a thermistor in the aortic arch and the left ventricle catheter as an injection port. Cardiac output was measured at end expiration as the mean of three injections of 3 ml of normal saline (0° C.). Exhaled NO was measured as described below. […]
For exhaled NO measurement in anesthetized animals, expiratory gas was sampled two to three times for 3 minute periods each and passed through a chemiluminescence analyzer (model 270B NOA; Sievers, Boulder, Colo., United States of America) to measure NO concentration as previously described. […] Exhaled NO production (nmol/min) was calculated using minute ventilation and the measured exhaled NO concentration.

nitrite/nitrate (NOx-) = assay: Isolated lung perfusion, perfusate NOx- measurement; format: in vivo, piglets; conditions: FIG. 6; p=0.04; no difference from normoxic controls
Experimental: The lungs were isolated and perfused in situ with a Krebs Ringer bicarbonate (KRB) solution containing 5% dextran, mol. wt. 70,000, at 37° C. and ventilated with a normoxic gas mixture (21% O2 and 5% CO2) as previously described. Fike, C. D. et al., J Appl Physiol (2000) 88:1797-1803. The lungs were perfused for 30-60 min until a stable pulmonary arterial pressure was achieved. Perfusate samples (1 ml) were then removed from the left atrial cannula every 10 min for a 60-minute period. The perfusate samples were centrifuged, and the supernatant was stored at −80° C. for future analysis of nitrite/nitrate (NOx^−) concentrations as described below. At the end of the perfusion, the volume of perfusate remaining in the circuit and reservoir was measured. […]
The perfusate NOx^− […] was calculated for each collection time by multiplying the perfusate concentration of NOx^− at that sample collection time by the volume of the system (perfusion circuit+reservoir) at the sample collection time plus the amount of NOx^− removed with all previous samples. The rate of NOx^− production was determined from the slope of a linear regression line fit to the amount of NOx^− in the perfusate versus time for the first 60 minutes of the collection period.

For `NC(=O)NCCC[C@H](N)C(=O)O` [L-citrulline], the “Plasma Citrulline” value ([1]; 90 minutes after administration of L-citrulline dose, N = 3) was 219 ± 36, the “plasma L-citrulline level relative to untreated chronic hypoxic animals” value ([1]; ninety minutes after a dose, p=0.001) was “almost twice” and the “plasma arginine levels vs untreated hypoxic animals” value ([1]; regardless of the time the sample was drawn) was “not higher”. For the same compound, the “Plasma Citrulline” value ([1]; trough, approximately twelve hours after L-citrulline dose, N = 6) was 161 ± 5, the “pulmonary artery pressure vs untreated hypoxic animals” value ([2]; FIG. 3, p-value of 0.01, not different from normoxic controls (p=0.08)) was “significantly lower” and the “calculated pulmonary vascular resistance” value ([2]; FIG. 4, L-citrulline treated hypoxic animals, significantly lower than untreated hypoxic (p-value of 0.001)) was 0.071±0.003. For the same compound, the “development of pulmonary hypertension” value ([2]; newborn piglets exposed to 10 days of chronic hypoxia, oral supplementation) was “ameliorates the development of pulmonary hypertension”, the “exhaled NO output vs untreated hypoxic animals” value (exhaled NO) was “higher” and the “NOx- accumulation rate in lung perfusate vs untreated hypoxic animals” value (nitrite/nitrate (NOx-)) was “significantly higher”.
